Results published in article PMC2225439, “Amyloid as a Depot for the Formulation of Long-Acting Drugs” (PLoS Biology, 2008).

Columns and labels:
[1] = Thio T binding (amyloid fibril formation); type: physicochemical; design: key to Thio T Binding: b, binding; n, not binding; conditions: 1 mg/ml in 5% D-mannitol, 0.01% sodium azide
Protocol: The kinetics of fibril formation in vitro is generally a slow process over several days or weeks, and can be monitored by the increase of fluorescence intensity of the cross-β-sheet–sensitive dye, Thio T [15]. Thio T fluorescence is thereby insignificant during the initial incubation period of amyloid aggregation due to the nonexistence of Thio T–sensitive β-sheet aggregates. After the initial phase, a time-dependent increase of fluorescence intensity is observed until a maximum intensity is reached, at which time maximal fibril formation has occurred. […] For the Thio T binding studies, all GnRH analogs were incubated at room temperature at a concentration of 1 mg/ml in 5% D-mannitol, conditions identical to the formulation used in the animal experiments. In addition, 0.01% sodium azide was added. The Thio T fluorescence was monitored daily for all analogs over a period of 21 d (Figure 1).
(§1) GnRH analogs were dissolved in a glass tube in 1 ml of 5% D-mannitol and 0.01% sodium azide at a concentration of 1 mg/ml. The GnRH analogs were then incubated at room temperature without stirring. The fibril formation was monitored by EM, CR, and time-resolved by Thio T binding studies. Three independent experiments were performed for each sample.
A 10-μl aliquot of peptide sample was diluted into 500 μl of water with 5% D-mannitol containing 0.01% (w/v) sodium azide. The solution was mixed with 10 μl of 1 mM Thio T prepared in the same solution. Fluorescence was measured immediately after addition of Thio T. The experiment was measured on a spectrofluorimeter (Photon Technology International) with excitation at 450 nm and emission at 482 nm. The fluorescence intensity at 482 nm was plotted against incubation time (day). A rectangular 10-mm quartz microcuvette was used. Three independent experiments were performed for each sample.

Congo red (CR) binding = type: physicochemical; design: key to Congo Red: b, binding; n, not binding; conditions: analogs incubated for 30 d, 1 mg/ml in 5% D-mannitol, 0.01% sodium azide, room temperature; UV 300–700 nm and by eye; three independent experiments
Protocol: To confirm amyloid formation by GnRH analogs, CR binding was measured. CR, like Thio T, is a dye routinely used to detect β-sheet–rich assemblies. CR binding can be measured by the “red shift” change of its absorption maximum from 490 to 540 nm, by an increase of the dye's molar absorptivity, and in favorable cases by eye. All three types of measurements were performed with GnRH analogs incubated for 30 d. […] However, five short-acting GnRH analogs, i.e., S3, S4, S6, S10, and S11, bind CR, showing that some short-acting GnRH-analogs are able to form amyloids after prolonged incubation (see also below). In contrast to short-acting analogs, all long-acting analogs bind CR.
as §1
A 5-μl aliquot of peptide sample was mixed with 80 μl of PBS buffer containing 10% ethanol. Then 15 μl of a 100 μM CR solution (filtered through 0.2-μm filter) in PBS containing 10% ethanol was added. After mixing, UV was measured from 300–700 nm. For the measurement of the CR-only spectrum, 15 μl of CR solution with 85 μl of PBS containing 10% ethanol was prepared. As a control, a 5-μl aliquot of GnRH analog mixed with 95 μl of PBS containing 10% ethanol was measured. Three independent experiments were performed for each sample. In addition to the UV measurements, pictures of the cuvette containing the peptide sample and CR were taken to visually show the CR binding to the amyloids.

α-Syn = molecular target: T1, α-Syn (Homo sapiens, UniProt P37840); assay: Cross-seeding of α-Syn by L20 fibrils; conditions: matured fibrils 5% v/v with 400 μM α-Syn in PBS pH 7.4, 37 °C, vigorous stirring, 30 d; Thio T
T1 construct: made in house
Protocol: Although the seeding of amyloids requires a high amino acid sequence similarity between the protein/peptide of the seed and its soluble host counterpart, cross-seeding between different protein species have been documented. To test whether amyloids of long-acting GnRH analogs are able to cross-seed with a protein associated with Parkinson disease, α-Syn, a seeding reaction was done with a small amount of matured L20 fibrils (5% v/v) in the presence of α-Syn (95% v/v; 400 μM concentration of monomeric solution [pH 7.4] in PBS). The fibril growth of the mixture as well as α-Syn in PBS as control were followed over a period of 30 d by Thio T binding.
A total of 5 μl of matured L20 fibril solution at a concentration of 1 mg/ml in 5% D-mannitol, 0.01% sodium azide was mixed with 95 μl of freshly prepared GnRH solution in the same solution condition followed by incubation at room temperature without stirring. […] Once a week, a 10-μl aliquot was diluted into 500 μl water containing 5% D-mannitol, 0.01% sodium azide, and 10 μl of 1 mM Thio T to measure the Thio T fluorescence as described above. […] The protein concentration of the supernatant was measured by UV absorbance with ɛ280 of 6,500 M^−1cm^−1. […] The formation of amyloid was monitored regularly for the mixture (α-Syn+L20) and α-Syn by Thio T binding.

[2] = tested on: plasma luteinizing hormone (LH) levels; conditions: duration of action class as listed in Table 1; castrated male rat assay; ref Tables S1 and S2; cited from earlier work
Text: Table 1 Biochemical and Biophysical Properties of Aggregates By GnRH-Analogs | column: Action || Supplement pbio.0060017.st001.doc, table 1: Table S1: Short acting GnRH analogs with their duration of action | column: Duration of action^b || Supplement pbio.0060017.st002.doc, table 1: Table S2: Long acting GnRH analogs with their duration of action | column: Duration of action^b || (+ 2 further places)

With “Ac-DNal-DCpa-Agl(Nic)-Ser-Aph(Ac)-DAph(Ac)-Leu-ILys-Pro-DAla-NH2 [L20]” the “Thio T Binding” value ([1]; room temperature without stirring, monitored daily over 21 d, fluorescence ex 450 nm / em 482 nm, three independent experiments) was “b”, the “Thio T binding (in words)” value ([1]; room temperature, 21 d) was “bind significantly more Thio T during the entire experiment” and the “Congo Red” value (Congo red (CR) binding) was “b”. The “cross-seeding of α-Syn” value (α-Syn) was “did not significantly influence the aggregation of α-Syn” and the Action [2] was “intermediate”.
